Experiment: Human HepG2 cell viability assay in 384 well format
Type: toxicity, cell-based
Parameters: dose 125 nL, time 70.5 hour; cytotoxicity at 70.5 h: concentration not given beside the values
Details: HepG2 cells, read-out: Inhibition

| SMILES | cytotoxicity at 70.5 h |
| --- | --- |
| Cc1ccc(O)c(CN2CCn3nc(C(=O)N4CCCC4)cc3C2)n1 | 0.113% |
| COc1c(C2CCCN2C(=O)c2ccnn2C)c(C)nn1C (centres undefined) | -4.02% |
| CC(=O)N1CCC[C@H]1C(=O)NCCCN(C(C)C)S(C)(=O)=O | -6.32% |
| Cc1ccc(N2CCO[C@@H]3CN(Cc4cccc(C)n4)CC[C@@H]3C2)nn1 | -3.06% |
| O=C(c1cccnc1OCC(F)(F)F)N1CCCn2ncnc21 | 14.8% |
| CN(C(=O)Cc1coc(-c2ccccc2)n1)C1(C#N)CCC1 | 1.14% |
| CC(C)CC(C)NCc1cccnc1N1CCOCC1 (centres undefined) | 19.8% |
| CN(C)C1CCCN(C(=O)NCCNC(=O)C2CCCCC2)C1 (centres undefined) | 3.73% |
| Cc1nc(C)n(CCNC(=O)C2(C)CC(c3ccccc3)=NO2)n1 (centres undefined) | 1.37% |
| COc1ccc(CNC(=O)N2CCC(Cc3cnn(C)c3)C2)cc1C (centres undefined) | -3.46% |
| CC(O)CN1CCC(CNCCOCC(F)(F)F)CC1 (centres undefined) | -7.95% |
| CC(C)(C)NS(=O)(=O)c1ccc(NC(=O)C2CC2)cc1 | 7.98% |
| CNC(=O)NC(=O)CN1CCN(c2ccc(C(=O)OC)cc2)CC1C (centres undefined) | -7.85% |
| CN1CC(C(=O)NCc2cccnc2OCC(F)(F)F)CC1=O (centres undefined) | -2.61% |
| Cc1nonc1CC(=O)N1C[C@@H]2CC[C@H](C1)N(Cc1ccccc1)C2=O | 8.97% |
| NC(=O)CSCC(=O)N1CCc2cc(Cl)cc(Cl)c2C1 | -10.4% |
| O=C1NCCCCC1Sc1nnc(N2CCCC2)n1C1CC1 (centres undefined) | 6.7% |
| COCC[C@]1(O)CCN(S(=O)(=O)c2ccc(C)cc2OC)C[C@H]1C | -4.64% |
| CN(Cc1ccc(F)c(F)c1)Cc1cc2c(cc1Br)OCCO2 | -8.74% |
| Cc1cc(N2CCC(O)(CN(C)C)C2)c2cc3c(cc2n1)OCO3 (centres undefined) | 44.8% |
| CNC(=O)[C@@H]1[C@H]2CNCCN2C[C@H]1c1ccccc1 | -6.11% |
| Cc1ccc(-c2nc(CN3CCN(S(=O)(=O)N(C)C)CC3)cs2)o1 | 1.51% |
| CCN(C(=O)C1CC1)C(c1cccnc1)c1ccc2c(c1)CCO2 (centres undefined) | -5.96% |

| SMILES | cytotoxicity at 70.5 h |
| --- | --- |
| CCCOc1ccc(CCC(=O)Nc2nonc2C)cc1 | -4.36% |
| CC1CCN(S(=O)(=O)c2cccn(CC(=O)NC3CCCC3)c2=O)CC1 | -3.39% |
| O=C(O)[C@]12CCCN(C3CCOC3)C[C@H]1CN(c1nncs1)C2 (some centres undefined) | -7.95% |
| CO[C@H]1CN(Cc2nc3ccccc3n2C)C[C@@]12CCCO2 | 7.3% |
| CCCNC(=O)CSCc1ccc(S(=O)(=O)N(C)C)o1 | -6.98% |
| CN(CC(F)(F)F)C(=O)COc1nc(Cc2ccc(F)cc2)no1 | -7.01% |
| CN(CCNS(C)(=O)=O)CC(c1cccs1)N1CCOCC1 (centres undefined) | -8.66% |
| Cc1cscc1C(=O)NC1CC(=O)N(C(C)C)C1=O (centres undefined) | -4.89% |
| Cc1nc(-c2ccccc2)n(CC(=O)NCC(C)C)n1 | -3.55% |
| CCSc1ccccc1C(=O)NCCN1CCC(c2cccs2)CC1 | 4.38% |
| CN1CCN(C(=O)c2cc[nH]c(=O)c2)Cc2ccccc21 | 1.93% |
| CCc1nccn1C1CCCN(C(=O)c2cn3cccnc3n2)C1 (centres undefined) | -11.4% |
| CC(C)N1CCCC(Cc2nccnc2Cl)C1 (centres undefined) | -4.45% |
| N#CCCN(Cc1ccco1)C(=O)CCCc1ccccc1 | -4.22% |
| Cn1ccnc(Nc2ccc3c(c2)CCN3C(=O)c2cccnc2)c1=O | -11.5% |
| COCC(O)CN(C)c1ccnc2ccc(Cl)cc12 (centres undefined) | 13.9% |
| Cc1ccccc1CCCN(Cc1ccccn1)S(C)(=O)=O | -0.248% |
| O=C(NC1CCCCC1)[C@H]1CNC[C@@H](COc2cccnc2)C1 | -3.95% |
| O=C(NCCN1CCOCC1)NCc1cccnc1-n1cccn1 | -2.89% |
| CCc1cnc(CN(C)C2CCN(CC3CCOCC3)C2)o1 (centres undefined) | 4.66% |
| CS(=O)(=O)N1CCO[C@@H]2CCN(C(=O)c3cccs3)CC[C@H]21 | 1.12% |
| Cn1nc(CN2CCCC2)c2c1CN(C(=O)c1cnccn1)CC2 | -1.41% |
| NC(=O)c1csc(N2C[C@@H](CN3CCCCC3)[C@@H](CO)C2)n1 | -6.7% |

| SMILES | cytotoxicity at 70.5 h |
| --- | --- |
| Cc1nc(C2CCCN2C(=O)c2ccc(N(C)C)nn2)no1 (centres undefined) | 25.8% |
| COc1cccc(F)c1CN1CCC(c2nc(C)cc(C)n2)C1 (centres undefined) | 14.3% |
| Cc1ccccc1CN1CC[C@H](c2nnc(-c3cncn3C)o2)C1 | 1.18% |
| CCCn1cnnc1CNC1CSCCSC1 | -9.24% |
| Cn1ccnc1CNC(=O)CC1CCCCO1 (centres undefined) | -6.84% |
| Cn1ccnc1CN1CCN2C[C@H](OCc3cccnc3)C[C@H]2C1 | -2.68% |
| Cc1ccn(CCC(=O)N2CCCC2c2nnc(-c3scnc3C)o2)n1 (centres undefined) | 11.6% |
| Cc1ccc(N2Cc3cnn(Cc4ccc(F)cc4)c3C2)nn1 | -4.14% |
| OCCn1cc(CN2CCN(CCOc3ccc(F)cc3)CC2)cn1 | -2.54% |
| CCn1c(CNC(=O)c2ccc(N(C)C)nc2)nc2ccccc21 | -8.62% |
| CN(C)c1cccc(C2CCN(C3COCC3O)CC2)n1 (centres undefined) | -4.45% |
| Cc1nc(CN2CCC3(CCCN(Cc4cnn(C)c4)C3)C2=O)cs1 (centres undefined) | 0.731% |
| O=C(NCc1cccs1)C1CCN(c2cc(-n3ccnc3)ncn2)CC1 | -0.911% |
| CO[C@H]1CO[C@@]2(CCCN(S(=O)(=O)c3ccccc3)C2)C1 | -10.1% |
| Cc1ccc(CC(=O)NCC(O)c2cc(Cl)cc(Cl)c2)cn1 (centres undefined) | -3.94% |
| CCN1CCN(C(=O)c2cn(Cc3ccccc3)c3ncccc23)CC1 | -0.985% |
| Cc1ccc(S(=O)(=O)NC(=O)CCc2ccco2)cc1N(C)C | 20.1% |
| Cc1cc2c(=O)n3c(nc2s1)CCN(Cc1cncn1C)CC3 | -7.45% |
| CCc1nnc(CN(C)CC2CCCCC2)o1 | -0.472% |
| CN(C)S(=O)(=O)N1C[C@@H]2CC[C@H](C1)N(Cc1ccc3c(c1)OCCO3)C2 | -3.43% |
| COc1cc(OC)c(CNC(=O)NCc2ccc(C#N)cc2)c(OC)c1 | 3.35% |
| Cc1nn(C)c(C)c1C1COCCN1C(=O)NC1CC1 (centres undefined) | 19.2% |
| O=C(c1ccc(C2CCCN2)s1)N1CCN(C(=O)N2CCOCC2)CC1 (centres undefined) | -6.24% |

| SMILES | cytotoxicity at 70.5 h |
| --- | --- |
| Nc1nc(C(=O)NCC2CCC3(CCNCC3)CO2)cs1 (centres undefined) | -13.9% |
| COCCN(CCOC)c1nc2c(s1)c(C)nn2C | -13.8% |
| Cc1cc(N2CCC(N(C)C(=O)Nc3ccccc3)CC2)nc(C)n1 | 2.35% |
| COCCN1CC[C@H]2CN(Cc3ccc(C)s3)C[C@@H]2C1=O | -9.57% |
| CN(Cc1ccco1)Cc1ccccc1CNC(=O)c1cc[nH]n1 | -6.12% |
| O=S(=O)(NCC1COc2ccccc2C1)N1CCCCCC1 (centres undefined) | -7.48% |
| CN(Cc1ccccc1)c1ncccc1CNC(=O)c1ccnn1C | -10.4% |
| COCCN(CCOC)C(=O)c1ccn(-c2ccc3ccccn23)n1 | 11.4% |
| Oc1ccc2oc3c(c2c1CN1CCOCC1)CCCC3 | -8.06% |
| COc1cc(C(=O)N2CCCC(CNS(C)(=O)=O)C2)ccc1C (centres undefined) | 15.8% |
| COc1ccc(CN2CCC(O)(CN3CCCCC3)C2)c(C)c1 (centres undefined) | -1.76% |
| O=C(c1cncc(N2CCC3(CC2)NCCNC3=O)n1)N1CCCCC1 | -4.89% |
| COCCSCC(=O)NCc1ccnc(N(C)C)c1 | -8.31% |
| CCn1nc(CC(C)C)cc1C(=O)NCc1c(C)cc(C)nc1OC | 2.04% |
| COc1ncccc1CNC(=O)NCCNS(C)(=O)=O | -2.56% |
| Cn1cc(NC(=O)c2cccc3cccnc23)ccc1=O | -18.3% |
| Cc1ccsc1CN(CCN(C)C)C(=O)c1ccccc1C#N | -0.2% |
| O=C(CN1CCOC(Cn2cncn2)C1)NC(C1CC1)C1CC1 (centres undefined) | 9.73% |
| CCc1ccc(C(=O)N2CCCC2c2nnc3n2CCCCC3)o1 (centres undefined) | 3.58% |
| COCCCC1(C(=O)O)CCCN(C(=O)c2ccc(Cl)cc2F)C1 (centres undefined) | -10.9% |
| c1ccc(OCCNCc2cccs2)nc1 | 7.79% |
| CCc1noc(CN2CCN(C(=O)C3CC3)CC2)n1 | -9.23% |
| CC(C)n1cc(CN2CCCN(C(=O)c3cccnc3O)CC2)cn1 | -2.94% |

| SMILES | cytotoxicity at 70.5 h |
| --- | --- |
| CC(C)(CNc1cn[nH]c(=O)c1Cl)c1ccc2c(c1)OCCO2 | -13.9% |
| CCC(C)NC(=O)c1ccc(CNC(=O)CCC(C)C)cc1 (centres undefined) | 15.4% |
| CC(C)C(CNC(=O)NCc1cc[nH]n1)N1CCOCC1 (centres undefined) | -5.25% |
| c1nc(CCC2CCCN2)cc(N2CCCCCC2)n1 (centres undefined) | 0.142% |
| Cc1cnn(CC2CCCN2c2ncnc3c2CCC3)c1 (centres undefined) | 13.3% |
| NC(=O)C1CCN(C(=O)C2SCCc3sccc32)CC1 (centres undefined) | -10.3% |
| CCc1nc(C)ncc1C(=O)N1CCCC(n2nc(C)nc2C)C1 (centres undefined) | -12% |
| CC(SCC(=O)N(C)CC(=O)NC1CC1)c1ccc(F)c(F)c1 (centres undefined) | -10.3% |
| COCCN1C(=O)CC[C@@H]2[C@H]1CCN2Cc1cccc(C#N)c1 | -11.2% |
| Cc1ccc(C(=O)NC2CCCCNC2=O)c(=O)[nH]1 (centres undefined) | -6.58% |
| Cc1nc(C)c(C)c(N2C[C@@H](CN3CCCN(C)CC3)[C@@H](CO)C2)n1 | -1.83% |
| CCOc1ccc(C(F)(F)F)cc1NCc1cc(C)on1 | 26.7% |
| CC(C)(C)n1nc(C2CC2)cc1C(=O)NCC1(C(N)=O)CCOCC1 | 22.2% |
| Cc1nc(-c2ccc(S(=O)(=O)N3CCOCC3)cc2)co1 | -6.53% |
| Clc1cccc(OCCCN2CCOC(Cn3cncn3)C2)c1 (centres undefined) | 1.4% |
| CCC1CN(C(=O)c2ccccc2N2CCOCC2)CCN1C(C)C (centres undefined) | -1.59% |
| CN(C)C1(CNc2nccc(-c3cnn(C)c3)n2)CCSC1 (centres undefined) | -0.261% |
| COCCCN(CCOC)C(=O)Nc1ccccc1Br | -15.2% |
| COc1ccc(CN2C[C@@H](N(C)Cc3ccco3)[C@H]3OCCC[C@H]32)cc1 | -8.22% |
| COCCN1CCN(CC(=O)N(C)Cc2ccsc2)CC1C (centres undefined) | -7.6% |
| CN(C)C(=O)CCNC(=O)Nc1cccc(Cl)c1-n1cccn1 | 1.32% |
| CS(=O)(=O)c1ccccc1C(=O)NCCCN1CCc2ccccc2C1 | 18.5% |

Source: ChEMBL document CHEMBL3507680, “University of Dundee, Gates Library screen for HepG2 cell viability”
